{"source": "patent US20190062272A1", "about": "“SMALL MOLECULES FOR IMMUNOGENIC TREATMENT OF CANCER” (Capten Therapeutics Inc., priority 2017, published 2019)", "assay_type_in_all_cases": "cell-based", "key": {"[1]": {"system": "B16F10 Melanoma", "experiment": "Cytotoxicity assay (Cell Titer GLO, 72 hours), B16F10", "conditions": "Mus musculus, B16-F10, B16F10 Melanoma cells, cell viability by Cell Titer GLO, read-out: GC50 (the source's name)", "procedure": "(§1) Cell lines used: CT26, B16F10 and NIH3T3\n(§2) Concentration range of drug to be tested: 50 nM to 50 uM\n(§3) Cells were plated in a 96 well plate and when they are about 50% confluent the drug was added in DMSO so that the final concentration of DMSO is 0.1% (v/v) of less and incubated for 72 hours. The cell viability is then determined using Cell Titer GLO."}, "[2]": {"system": "NIH 3T3 Non-tumor", "experiment": "Cytotoxicity assay (Cell Titer GLO, 72 hours), NIH3T3", "conditions": "Mus musculus, NIH 3T3 Non-tumor cells, cell viability by Cell Titer GLO, read-out: GC50 (the source's name)", "procedure": "as §1, §2, §3"}, "[3]": {"system": "CT26 Colon Cancer", "experiment": "Cytotoxicity assay (Cell Titer GLO, 72 hours), CT26", "conditions": "Mus musculus, CT26 Colon Cancer cells, cell viability by Cell Titer GLO, read-out: GC50 (the source's name)", "procedure": "as §1, §2, §3"}}}
{"compound": "C=CC(=O)NCCSc1ccc(O)c(O)c1", "note": "[Compound 10, N-[2-(3,4-dihydroxyphenyl)sulfanylethyl]propenamide]", "values": [{"measurement": "IC50", "setting": "[1]", "result": "> 50", "unit": "µM"}, {"measurement": "IC50", "setting": "[2]", "result": "> 50", "unit": "µM"}, {"measurement": "IC50", "setting": "[3]", "result": "> 50", "unit": "µM"}]}
{"compound": "C=CC(=O)NCCSc1cc(O)ccc1O", "note": "[Compound 12, N-[2-(2,5-dihydroxyphenyl)sulfanylethyl]propenamide]", "values": [{"measurement": "IC50", "setting": "[1]", "result": "> 50", "unit": "µM"}, {"measurement": "IC50", "setting": "[2]", "result": 3.3, "unit": "µM"}, {"measurement": "IC50", "setting": "[3]", "result": 14.2, "unit": "µM"}]}
{"compound": "C=CC(=O)NCCSc1cccc(O)c1O", "note": "[Compound 14, N-[2-(2,3-dihydroxyphenyl)sulfanylethyl]propenamide]", "values": [{"measurement": "IC50", "setting": "[1]", "result": 4.7, "unit": "µM"}, {"measurement": "IC50", "setting": "[2]", "result": "> 50", "unit": "µM"}, {"measurement": "IC50", "setting": "[3]", "result": 9.9, "unit": "µM"}]}
